# Where two headings read alike, the source gives them in different places.
# Assays:
# [1] = test system: normal human dermal fibroblasts (NHDF); assay: MTT cell viability assay, NHDF; assay type: cell-based; conditions: for IC50: 72 h of incubation, MTT, protected from light; for cell viability percentage in relation with control, NHDF: single concentration of 10 µM, mean ± SD
# Protocol: (§1) Caco-2, MCF-7, PC-3, and NHDF cell lines were obtained from the American Type Culture Collection (ATCC) and maintained in 75 cm^2 culture flasks in a humidified atmosphere at 37 °C with 5% carbon dioxide using a LEEC Culture Safe Precision CO2 Incubator. The culture media was renewed every two to three days. The NHDF cell line was cultured in Roswell Park Memorial Institute (RPMI) medium supplemented with 10% of inactivated fetal bovine serum (FBS), 2 mM of L-glutamine, 10 mM of 4-(2-hydroxyethyl)-1-piperazineethanesulfonic acid (HEPES), 1 mM of sodium pyruvate, and 1% of antibiotic/antimycotic mixture (Ab; 10,000 U/mL of penicillin G, […] of streptomycin, and 25 µg/mL of amphotericin B). The PC-3 cell line was also cultured in RPMI 1640 medium supplemented with 10% inactivated FBS and 1% of an antibiotic mixture (Sp; 10,000 U/mL of penicillin G and […] of streptomycin). The Caco-2 and MCF-7 cell lines were grown in Dulbecco’s Modified Eagle Medium (DMEM). Caco-2 was supplemented with 20% of inactivated FBS and 1% of Sp. On the other hand, the MCF-7 medium was complemented with 10% of inactivated FBS and 1% of Ab. All manipulations were performed in a Labculture Class II A2 Biological Safety Cabinet.
# (§2) After the near confluency of cultures, cells were detached with a solution of 0.125 g/L trypsin and 0.02 g/L ethylenediaminetetracetic acid (EDTA), counted using the trypan blue method, resuspended, and seeded in 96-well culture plates (100 µL, 2 × 10^4 cells/mL). Following 48 h of adherence, cells were treated with the test solutions and incubated for 72 h. This incubation, as well as the solution manipulations, were performed in an environment protected from light. After the incubation, the medium was replaced with a fresh incomplete culture medium (without FBS and Ab or Sp) and MTT solution (5 mg/mL in phosphate buffer saline (PBS)). After additional incubation for 4 h, the MTT medium was removed, formazan crystals were dissolved in DMSO, and the optical density of each well was measured at 570 nm using a microplate spectrophotometer Bio-Rad xMark. Untreated cells were used as a negative control and 5-FU as the positive control. The results were expressed as the relative cell proliferation relative to the negative control cells. […] To determine the IC50 values, Caco-2, MCF-7, PC-3, and NHDF cells were exposed to increasing concentrations between 0.001 and 100 μM.
# [2] = MTT cell viability assay, NHDF; assay type: cell-based, human; conditions: human, normal human dermal fibroblasts (NHDF), single concentration of 10 µM, 72 h, mean ± SD; read-out: cell viability percentage in relation with control, NHDF
# Protocol: as §1, §2
# [3] = test system: PC-3 prostate adenocarcinoma cell line; assay: MTT cell viability assay, PC-3; assay type: cell-based, human
# Protocol: as §1, §2
# [4] = test system: MCF-7 breast adenocarcinoma cell line; assay: MTT cell viability assay, MCF-7; assay type: cell-based, human; conditions: single concentration of 10 µM, 72 h, mean ± SD; for viability at 10 µM: Homo sapiens, read-out: cell viability percentage in relation with control, MCF-7
# Protocol: as §1, §2
# [5] = test system: Caco-2 colorectal adenocarcinoma cell line; assay: MTT cell viability assay, Caco-2; assay type: cell-based, human; conditions: for IC50: 72 h of incubation, MTT, protected from light; for viability at 10 µM / cell viability percentage in relation with control, Caco-2: single concentration of 10 µM, mean ± SD; for viability at 10 µM / SI Caco-2 (selectivity index, cancer versus NHDF) / cell viability percentage in relation with control, Caco-2: 72 h; for viability at 10 µM: read-out: cell viability percentage in relation with control, Caco-2; for SI Caco-2 (selectivity index, cancer versus NHDF): Caco-2 versus NHDF
# Protocol: as §1, §2
# [6] = MTT cell viability assay, Caco-2; assay type: cell-based, human; conditions: human, Caco-2, Caco-2 versus NHDF, 72 h; read-out: SI Caco-2 (selectivity index, cancer versus NHDF)
# Protocol: as §1, §2
# [7] = Homo sapiens, 72 h, single concentration of 10 µM, 72 h, mean ± SD; read-out: cell viability percentage in relation with control, PC-3
# [8] = single concentration of 10 µM, 72 h, mean ± SD
Compound,"IC50 ([1]; Homo sapiens, NHDF, 72 h)","viability at 72 h, 10 µM [2]","viability at 10 µM [3, 7]","viability at 10 µM ([4]; MCF7, 72 h)","IC50 ([5]; Homo sapiens, Caco-2, 72 h)","viability at 10 µM ([5]; Homo sapiens, Caco-2, 72 h)",selectivity ratio at 72 h [6],melting point,"SI Caco-2 (selectivity index, cancer versus NHDF) [5]",other results
"CCCCCCCCCCN1C(=Cc2sc3ccccc3[n+]2CCCCCCCCCC)Sc2ccccc21.[I-] [Dye 11, 3-Decyl-2-((3-decylbenzo[d]thiazol-2(3H)-ylidene)methyl)benzo[d]thiazol-3-ium iodide]",720 nM,0.15 ± 0.38%,0.94 ± 0.11%,0.1 ± 0.69%,1240 nM,0.66 ± 0.44%,0.6,232 to 233 °C,–,–
"CN1C(=Cc2sc3ccccc3[n+]2C)Sc2ccccc21.[I-] [Dye 4, 3-Methyl-2-((3-methylbenzo[d]thiazol-2(3H)-ylidene)methyl)benzo[d]thiazol-3-ium iodide]",–,–,–,–,–,–,–,–,1.8,"IC50 ([1]; listed as 4): 730 nM; cell viability percentage in relation with control, NHDF ([1]; 72 h): 3.82 ± 0.21%; cell viability percentage in relation with control, PC-3 [3, 8]: 1.18 ± 0.36%; cell viability percentage in relation with control, MCF-7 [4]: 2.26 ± 0.82%; IC50 ([5]; listed as 4): 400 nM; cell viability percentage in relation with control, Caco-2 [5]: 3.01 ± 0.74%"
"C(=C1Sc2ccccc2N1Cc1ccccc1)c1sc2ccccc2[n+]1Cc1ccccc1.[I-] [Dye 8, 3-Benzyl-2-((3-benzylbenzo[d]thiazol-2(3H)-ylidene)methyl)benzo[d]thiazol-3-ium iodide]",930 nM,2.04 ± 0.39%,1.16 ± 0.49%,1.47 ± 1.13%,950 nM,0.32 ± 0.03%,1,249 to 250 °C,–,–
"CN1C(=Cc2sc3ccccc3[n+]2C)Sc2ccccc21.Cc1ccc(S(=O)(=O)[O-])cc1 [Dye 5, 3-Methyl-2-((3-methylbenzo[d]thiazol-2(3H)-ylidene)methyl)benzo[d]thiazol-3-ium 4-methylbenzenesulfonate]",–,–,–,–,–,–,–,–,2.4,"IC50 ([1]; listed as 5): 680 nM; cell viability percentage in relation with control, NHDF ([1]; 72 h): 4.42 ± 0.55%; cell viability percentage in relation with control, PC-3 [3, 8]: 1 ± 0.18%; cell viability percentage in relation with control, MCF-7 [4]: 1.55 ± 0.53%; IC50 ([5]; listed as 5): 280 nM; cell viability percentage in relation with control, Caco-2 [5]: 2.55 ± 0.58%"
"CC1(C)C(=CC=C2CCCC(C=CC3=[N+](CCCCS(=O)(=O)O)c4ccccc4C3(C)C)=C2Cl)N(CCCCS(=O)(=O)O)c2ccccc21 [Dye 19, 2-(2-(2-Chloro-3-(2-(3,3-dimethyl-1-(4-sulfobutyl)indolin-2-ylidene)ethylidene)cyclohex-1-en-1-yl)vinyl)-3,3-dimethyl-1-(4-sulfobutyl)-3H-indol-1-ium iodide]",–,42 ± 1.76%,51.1 ± 5.32%,94.4 ± 7.99%,–,57.4 ± 1.75%,–,–,–,–
"CCCCCN1C(=Cc2sc3ccccc3[n+]2CCCCC)Sc2ccccc21.[I-] [Dye 10, 3-Pentyl-2-((3-pentylbenzo[d]thiazol-2(3H)-ylidene)methyl)benzo[d]thiazol-3-ium iodide]",670 nM,0.1 ± 0.36%,0.97 ± 0.26%,0.87 ± 2.53%,1240 nM,1.02 ± 0.42%,0.6,164 to 166 °C,0.7,IC50 [5]: 1000 nM
CCN1C(=Cc2sc3ccccc3[n+]2CC)Sc2ccccc21 [Dye 6],490 nM,3.37 ± 0.65%,2.06 ± 0.89%,1.08 ± 0.23%,300 nM,3.52 ± 0.3%,1.6,–,–,–
"COC(=O)CN1C(=Cc2sc3ccccc3[n+]2CC(=O)OC)Sc2ccccc21.[Br-] [Dye 9, 3-(2-Methoxy-2-oxoethyl)-2-((3-(2-methoxy-2-oxoethyl)benzo[d]thiazol-2(3H)-ylidene)methyl)benzo[d]thiazol-3-ium bromide]",–,47.9 ± 3.64%,46.8 ± 14%,49 ± 13.9%,1000 nM,47 ± 6.81%,0.7,226 to 227 °C,–,–
"CN1/C(=C/c2sc3ccccc3[n+]2C)Sc2ccccc21 [Dye 2, Methyl-2-((3-methylbenzo[d]thiazol-2(3H)-ylidene)methyl)benzo[d]thiazol-3-ium chloride]",770 nM,5.64 ± 1.15%,1.29 ± 0.24%,0.85 ± 0.34%,650 nM,2.18 ± 0.64%,–,–,1.2,–
"c1ccc2sc(Cc3nc4ccccc4s3)nc2c1 [bisbenzothiazole 1, bis(benzo[d]thiazol-2-yl)methane]",–,31 ± 0.57%,53.2 ± 9.68%,55.7 ± 4.97%,–,59.6 ± 5.45%,–,97 to 98 °C,–,–
"CCCCCCCCCCN1C(=CC=C2CCCC(C=Cc3[se]c4ccccc4[n+]3CCCCCCCCCC)=C2Cl)[Se]c2ccccc21.[I-] [Dye 18, 2-(2-(2-Chloro-3-(2-(3-decylbenzo[d][1,3]selenazol-2(3H)-ylidene)ethylidene)cyclohex-1-en-1-yl)vinyl)-3-decylbenzo[d][1,3]selenazol-3-ium iodide]",–,36.6 ± 1.75%,–,–,–,–,–,221 to 224 °C,–,"viability at 10 µM ([3]; Homo sapiens; single concentration of 10 µM, 72 h, mean ± SD; read-out: cell viability percentage in relation with control, PC-3): 28.4 ± 7.73%; viability at 10 µM ([4]; MCF7): 51.8 ± 10.1%; viability at 10 µM ([5]; Homo sapiens, Caco-2): 47.2 ± 5.29%"
"CCN1C(=CC=Cc2oc3ccccc3[n+]2CC)Oc2ccccc21 [Dye 15, 3-Ethyl-2-(3-(3-ethylbenzo[d]oxazol-2(3H)-ylidene)prop-1-en-1-yl)benzo[d]oxazol-3-ium iodide]",4020 nM,3.72 ± 0.23%,13.3 ± 1.9%,6.03 ± 0.77%,390 nM,8.58 ± 0.92%,10.4,–,–,–
"CN1C(=Cc2sc3ccccc3[n+]2C)Sc2ccccc21.[Br-] [Dye 3, 3-Methyl-2-((3-methylbenzo[d]thiazol-2(3H)-ylidene)methyl)benzo[d]thiazol-3-ium bromide]",410 nM,–,1.27 ± 0.31%,–,520 nM,1.68 ± 0.53%,–,–,0.8,"cell viability percentage in relation with control, NHDF ([1]; 72 h): 3.93 ± 0.75%; cell viability percentage in relation with control, MCF-7 [4]: 0.52 ± 0.39%"
